Assay results: patent publication US20250282816A1, “THIOSTREPTON COMPOSITIONS AND PREPARATION THEREOF” (RS Oncology, LLC, priority 2021, published 2025)

Assays:
[1] = test system: ovarian cancer cell line SKOV3; assay: cell viability assay, crystal violet cell staining; assay type: cell-based; conditions: 48 hours treatment
Protocol: Commercial thiostrepton (TS) starting material (TS Non-GMP) and ultrapure TS (TS GMP) were diluted to 10 mM in sterile DMSO. Lots of TS were evaluated in a cell viability assay using the ovarian cancer cell line SKOV3 purchased from ATCC. Two replicate plates containing technical duplicates were set up for screening. Cells were plated at a density of 2,500 cells/well in 96-well plates and allowed to adhere for 24 hours prior to treatment. A starting concentration of 20 μM for each TS solution was serial diluted 1:1 covering a concentration range of 20 μM to 20 nM. Cells were incubated with treatments for 48 hours prior to fixation with 3% formaldehyde and crystal violet cell staining to determine residual cells remaining (100%=no cell death, 0%=complete cell death). FIG. 4. EC50 values (the concentration required to kill 50% of cells) were determined using a variable slope least square fit non-linear regression. FIG. 5.

[2] = Antibiotics-Microbial assay, USP <81>; assay type: cell-based; conditions: final product of the 2 kg scale cGMP process (GMP DS Lot 1); specification ≥900 IU/mg
From the text: Materials and Methods. […] Identification by IR spectrum, USP <197K> • 2. Antibiotics-Microbial assay, USP <81>

C=C(NC(=O)C(=C)NC(=O)c1csc(C2=N[C@@H]3c4csc(n4)[C@H]4NC(=O)c5csc(n5)[C@H]([C@](C)(O)[C@@H](C)O)NC(=O)[C@H]5CSC(=N5)/C(=C/C)NC(=O)[C@H]([C@@H](C)O)NC(=O)c5csc(n5)[C@]3(CC2)NC(=O)[C@H](C)NC(=O)C(=C)NC(=O)[C@H](C)NC(=O)[C@H]([C@@H](C)CC)N[C@@H]2C=Cc3c([C@H](C)O)cc(nc3[C@H]2O)C(=O)O[C@@H]4C)n1)C(N)=O [ultrapure TS, thiostrepton]
biological activity as measured by % cell death of cancer cells, compared with commercial TS ([1]; 20 μM to 20 nM, N=4 replicates (FIG. 4)): better biological activity
biological activity as measured by EC50 (the concentration required to kill 50% of cells), compared with commercial TS ([1]; variable slope non-linear regression, N=4 replicates, p<0.0001 (FIG. 5)): better biological activity
Antibiotics-Microbial assay [2]: 988 IU/mg
